According to US6635622B2, “Glycolipid derivative” (Kotobuki Pharmaceutical Co., Ltd., priority 2000, dated 2003):

Experiments:
B16 mouse melanoma cells = test: Tumor metastasis inhibitory activity against B16 mouse melanoma (lung nodules); type: in vivo, C57BL/6 mouse; conditions: p.o., lung surface nodules 14 days after B16 injection, vs control
[1] = test system: pancreatic lymphocyte of mouse; test: Lymphocyte mixed culture reaction (3H-thymidine uptake, DNA synthesis); type: cell-based, BALB/C mouse; conditions: concentration 1 ng/mL; cultured 3 days, 3H-TdR uptake 6 hours
Protocol: Experiment 1: Lymphocyte mixed culture reaction.
The pancreatic cells of BALB/C mouse were regulated to a concentration of 2×10^6 cells/ml with a culture medium of 10% FCS RPMI 1640, respectively. These cells (100 ul/well) and a sample (10 ul/well) were plated in a 96 well round-bottomed plate and cultured for 3 days under the condition of 37° C. and 5% CO2. Then, 3H-thymidine (3H-TdR) was added in a dose of 0.5 uCi/well. After 6 hours, the cells were harvested and subjected to the measurement of the uptake of 3H-TdR by a liquid scintillation counter. Thus, the DNA synthesis of pancreatic lymphocyte of mouse […].

## CCCCCCCCCCCCCCCCCCCCCCCCCC(=O)NC(CC[C@H]1OC(CO)[C@H](O)C(O)C1O)C(O)C(O)CCCCCCCCCCCCCC (stereo partly drawn) [Compound 1, (3′S,4′S,5′R)-3′-N-Hexacosanoylamino-4′,5′-dihydroxy-nonadecane-α-C-D-galactopyranoside]
B16 mouse melanoma cells; dose 0.001 mg/kg
  Inhibition of metastasis (%): 65.3%
[1]
  Increase of DNA synthesis (%): 54.6%

## CCCCCCCCCCCCCCCCCCCCCCCCCC(=O)NC(CS[C@H]1OC(CO)[C@H](O)C(O)C1O)C(O)C(O)CCCCCCCCCCCCCC (stereo partly drawn) [Compound 8, (2′S,3′S,4′R)-3′,4′-Dihydroxy-2′-N-hexacosanoylamino-octadecane-1′-thio-yl-α-C-D-galactopyranoside]
B16 mouse melanoma cells; dose 1 mg/kg
  Inhibition of metastasis (%): 80.8%
[1]
  Increase of DNA synthesis (%): 35.4%
